Measurements: patent publication US9771351B2, “Wnt signaling inhibitor” (KYOWA HAKKO KIRIN CO., LTD., priority 2013, dated 2017)
Like-named read-outs stand apart in the source and are kept apart here. Values belong to the compound of their own block, whether it stands above or below them.

Experiments:
[1] = system: T-cell factor (TCF)-luciferase reporter using Wnt pathway as index; experiment: Inhibitory activity against TCF-luciferase reporter using Wnt pathway as index (DLD-1/TCF-Luc cells); type: cell-based, human; conditions: for inhibition at 1 µM: Homo sapiens, read-out: Inhibition ratio (%) at 1 μmol/L
Protocol: Test Example 1: Inhibitory Activity Against T-Cell Factor (TCF)-Luciferase Reporter Using Wnt Pathway as Index
The inhibitory activity of test compounds against Wnt pathway was evaluated by the following method.
A human colorectal adenocarcinoma cell line DLD-1 (Japanese Collection of Research Bioresources) was cultured in RPMI-1640 medium (Gibco/Life Technologies, Inc.) containing 10% fetal bovine serum (Gibco/Life Technologies, Inc.), 10 mmol/L of a 4-(2-hydroxyethyl)-1-piperazineethanesulfonic acid (HEPES) buffer solution (Gibco/Life Technologies, Inc.), 1 mmol/L of a sodium pyruvate solution (Gibco/Life Technologies, Inc.), 4.5 g/L of a D-(+)-glucose solution (Sigma-Aldrich, Inc.), 100 units/mL penicillin (Gibco/Life Technologies, Inc.) and 100 μg/mL of streptomycin (Gibco/Life Technologies, Inc.) under the conditions of 37° C. and 5% carbon dioxide gas. The DLD-1 cells were seeded in a 10 cm dish, and 20 μg of a luciferase gene plasmid pGL4.27 having a TCF responsive sequence inserted therein was transfected into the cells using 10 μL of Attractene (Qiagen, Inc.) according to the protocol attached to the product. A stably expressing cell line (DLD-1/TCF-Luc) was selected using […] of hygromycin B (Wako Pure Chemical Industries Ltd.). The DLD-1/TCF-Luc cells were detached with trypsin and seeded in a 384-well plate, and a test compound was added at different concentrations. After 18 hours, the luciferase activity was measured using Steady-Glo™ Luciferase Assay System (Promega, Inc.).
The inhibition ratio was obtained according to the following formula 1. The inhibition ratio (%) of the compound of the present invention at 1 μmol/L against the TCF-luciferase reporter using the Wnt pathway as an index is shown in Table 6. [Math. 1] Inhibition ratio (%)=100−{(luciferase activity when test compound was added)−(luciferase activity of blank)}/{(luciferase activity of control)−(luciferase activity of blank)}×100 Formula 1

tankyrase-2 = target: T1, tankyrase-2 (Homo sapiens, UniProt Q9H2K2); experiment: Tankyrase-2 enzyme inhibition test (Tankyrase-2 Chemiluminescent Assay Kit); type: biochemical; conditions: autoribosylation of GST-tankyrase-2 fusion protein, chemiluminescence
T1 construct: purchased BPS Bioscience, Inc. 80566
T1 sequence (Q9H2K2 1-1166): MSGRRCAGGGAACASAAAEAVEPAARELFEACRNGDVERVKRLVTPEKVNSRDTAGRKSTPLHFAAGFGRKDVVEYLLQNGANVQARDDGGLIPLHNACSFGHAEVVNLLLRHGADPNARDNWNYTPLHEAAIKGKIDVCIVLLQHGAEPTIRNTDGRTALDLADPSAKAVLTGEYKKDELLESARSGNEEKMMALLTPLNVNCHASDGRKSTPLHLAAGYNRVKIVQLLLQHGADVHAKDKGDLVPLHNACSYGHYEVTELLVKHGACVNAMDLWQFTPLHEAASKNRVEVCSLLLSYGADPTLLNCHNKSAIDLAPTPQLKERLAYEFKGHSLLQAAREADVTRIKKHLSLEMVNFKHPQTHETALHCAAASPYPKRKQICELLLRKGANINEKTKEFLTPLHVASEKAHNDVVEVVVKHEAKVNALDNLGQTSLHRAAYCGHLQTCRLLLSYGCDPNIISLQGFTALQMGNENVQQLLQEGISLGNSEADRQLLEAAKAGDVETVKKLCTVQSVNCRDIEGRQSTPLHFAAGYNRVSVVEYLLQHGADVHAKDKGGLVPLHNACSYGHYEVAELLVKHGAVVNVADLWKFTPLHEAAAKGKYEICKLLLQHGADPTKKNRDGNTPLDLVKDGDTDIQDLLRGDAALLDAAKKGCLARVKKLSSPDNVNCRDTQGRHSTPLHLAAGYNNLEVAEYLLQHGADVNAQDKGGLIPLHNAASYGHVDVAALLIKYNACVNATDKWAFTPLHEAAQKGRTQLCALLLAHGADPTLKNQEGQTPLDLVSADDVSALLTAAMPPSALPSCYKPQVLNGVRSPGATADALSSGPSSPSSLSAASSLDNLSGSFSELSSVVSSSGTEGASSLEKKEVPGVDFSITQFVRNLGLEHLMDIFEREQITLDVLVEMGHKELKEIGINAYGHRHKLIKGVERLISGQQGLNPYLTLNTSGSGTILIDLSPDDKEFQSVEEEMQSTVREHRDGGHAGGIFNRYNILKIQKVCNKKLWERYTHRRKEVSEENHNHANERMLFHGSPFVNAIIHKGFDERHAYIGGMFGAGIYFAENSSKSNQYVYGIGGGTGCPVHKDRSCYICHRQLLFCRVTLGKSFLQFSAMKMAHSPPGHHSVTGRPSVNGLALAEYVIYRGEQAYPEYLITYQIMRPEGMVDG
Protocol: Test Example 2: Tankyrase-2 Enzyme Inhibition Test
The enzyme activity of tankyrase-2 was evaluated using Tankyrase-2 Chemiluminescent Assay Kit (BPS Bioscience, Inc., Catalog No. 80566). The Tankyrase-2 Chemiluminescent Assay Kit is a kit for evaluating the enzyme activity of tankyrase-2 using autoribosylation of glutathione-S-transferase (GST)-tankyrase-2 fusion protein as an index. All the experimental materials except for PBS (PBST) buffer containing phosphate-buffered saline (PBS) and 0.05% Tween 20 are all included in the kit. The GST-tankyrase-2 enzyme diluted with 50 μL of 1× tankyrase buffer was added to the wells of a 96-well plate coated with glutathione. After the plate was left to stand overnight at 4° C., the plate was washed 3 times with the PBST buffer. 150 μL of blocking buffer was added thereto, and the plate was left to stand at room temperature for 30 minutes to block the wells. The plate was washed 3 times with the PBST buffer. Before the ribosylation reaction, an assay mixture containing a biotinylated substrate and a test compound diluted with 1× tankyrase buffer were mixed, whereby a reaction mixture was prepared. In order to start the ribosylation reaction, 50 μL of the reaction mixture was added to the wells. In a blank well, 1× tankyrase buffer was added in place of the reaction mixture containing a biotinylated substrate. The plate was left to stand at 30° C. for 1 hour. After the reaction, the plate was washed 3 times with the PBST buffer. Streptavidin-horseradish peroxidase (HRP) was diluted to 50-fold with the blocking buffer. The diluted streptavidin-HRP was added to the wells, and the plate was left to stand at room temperature for 30 minutes. The plate was washed 3 times with the PBST buffer. Immediately before use, 50 μL of the HRP chemiluminescent substrate A and 50 μL of the HRP chemiluminescent substrate B were mixed and 100 μL of the resulting mixture was added to the wells. The chemiluminescence was measured using a chemiluminescence measuring apparatus. The inhibition ratio was obtained according to the following formula 2. [Math. 2] Inhibition ratio (%)=100−{(chemiluminescence intensity when test compound was added)−(chemiluminescence intensity of blank)}/{(chemiluminescence intensity of control)−(chemiluminescence intensity of blank)}×100 Formula 2

[2] = 1 μmol/L, DLD-1/TCF-Luc cells, luciferase activity after 18 hours

SMILES: N#Cc1cccc(N2C(=O)N(CC3CCN(c4ncnc5cc(C(=O)O)ccc45)CC3)Cc3ccccc32)c1 [Compound 25, 4-(4-{[1-(3-Cyanophenyl)-2-oxo-1,2-dihydroquinazolin-3(4H)-yl]methyl}piperidin-1-yl)quinazoline-7-carboxylic acid]
inhibition at 1 µM ([1]; DLD-1, 18 h): 86%
Inhibition ratio (%) at 1 μmol/L (tankyrase-2): 81%

SMILES: N#Cc1cccc(N2C(=O)N(CC3CCN(c4ncnc5c[n+]([O-])ccc45)CC3)Cc3ccccc32)c1 [Compound 29, 4-(4-{[1-(3-Cyanophenyl)-2-oxo-1,2-dihydroquinazolin-3(4H)-yl]methyl}piperidin-1-yl)pyrido[3,4-d]pyrimidine-7-oxide]
inhibition at 1 µM ([1]; DLD-1, 18 h): 74%
Inhibition ratio (%) at 1 μmol/L (tankyrase-2): 87%

SMILES: N#Cc1cc(N2C(=O)N(CC3CCN(c4nccn5ccnc45)CC3)Cc3ccccc32)ccn1 [Compound 30, 4-(3-{[1-(Imidazo[1,2-a]pyrazin-8-yl)piperidin-4-yl]methyl}-2-oxo-3,4-dihydroquinazolin-1(2H)-yl)picolinonitrile]
inhibition at 1 µM ([1]; DLD-1, 18 h): 69%
Inhibition ratio (%) at 1 μmol/L (tankyrase-2): 92%

SMILES: COc1cncnc1N1CCC(CN2Cc3ccccc3N(c3ccnc(C#N)c3)C2=O)CC1 [Compound 32, 4-(3-{[1-(5-Methoxypyrimidin-4-yl)piperidin-4-yl]methyl}-2-oxo-3,4-dihydroquinazolin-1(2H)-yl)picolinonitrile]
inhibition at 1 µM ([1]; DLD-1, 18 h): 76%
Inhibition ratio (%) at 1 μmol/L (tankyrase-2): 94%

SMILES: N#Cc1cc(N2C(=O)N(CC3CCN(c4nccc5nc[nH]c(=O)c45)CC3)Cc3ccccc32)ccn1 [Compound 34, 4-(2-Oxo-3-{[1-(4-oxo-3,4-dihydropyrido[4,3-d]pyrimidin-5-yl)piperidin-4-yl]methyl}-3,4-dihydroquinazolin-1(2H)-yl)picolinonitrile]
inhibition at 1 µM ([1]; DLD-1, 18 h): 78%
Inhibition ratio (%) at 1 μmol/L (tankyrase-2): 87%

SMILES: N#Cc1cc(N2C(=O)N(CC3CCN(c4ncnc5c4NC(=O)CO5)CC3)Cc3ccccc32)ccn1 [Compound 35, 4-(2-Oxo-3-{[1-(6-oxo-6,7-dihydro-5H-pyrimido[4,5-b][1,4]oxazin-4-yl)piperidin-4-yl]methyl}-3,4-dihydroquinazolin-1(2H)-yl)picolinonitrile]
inhibition at 1 µM ([1]; DLD-1, 18 h): 79%
Inhibition ratio (%) at 1 μmol/L (tankyrase-2): 88%

SMILES: N#Cc1cc(N2C(=O)N(CC3CCN(c4ncnc5[nH]c(=O)[nH]c45)CC3)Cc3ccccc32)ccn1 [Compound 36, 4-(2-Oxo-1-{[1-(8-oxo-8,9-dihydro-7H-purin-6-yl)piperidin-4-yl]methyl}-3,4-dihydroquinazolin-1(2H)-yl)picolinonitrile]
Inhibition ratio (%) at 1 μmol/L [1, 2]: 79%
Inhibition ratio (%) at 1 μmol/L (tankyrase-2): 88%

SMILES: N#Cc1cc(N2C(=O)N(CC3CCN(c4ncnc5cc(N6CCOCC6)ccc45)CC3)Cc3ccccc32)ccn1 [Compound 37, 4-(3-{[1-(7-Morpholinoquinazolin-4-yl)piperidin-4-yl]methyl}-2-oxo-3,4-dihydroquinazolin-1(2H)-yl)picolinonitrile]
inhibition at 1 µM ([1]; DLD-1, 18 h): 82%
Inhibition ratio (%) at 1 μmol/L (tankyrase-2): 87%

SMILES: N#Cc1cc(N2C(=O)N(CC3CCN(c4cccc5n[nH]c(=O)n45)CC3)Cc3ccccc32)ccn1 [Compound 38, 4-(2-Oxo-3-{[1-(3-oxo-2,3-dihydro-[1,2,4]triazolo[4,3-a]pyridin-5-yl)piperidin-4-yl]methyl}-3,4-dihydroquinazolin-1(2H)-yl)picolinonitrile]
inhibition at 1 µM ([1]; DLD-1, 18 h): 89%
Inhibition ratio (%) at 1 μmol/L (tankyrase-2): 94%

SMILES: N#Cc1cc(N2C(=O)N(CC3CCN(c4c(C(N)=O)ccnc4F)CC3)Cc3ccccc32)ccn1 [Compound 40, 3-(4-{[1-(2-Cyanopyridin-4-yl)-2-oxo-1,2-dihydroquinazolin-3(4H)-yl]methyl}piperidin-1-yl)-2-fluoroisonicotinamide]
inhibition at 1 µM ([1]; DLD-1, 18 h): 78%
Inhibition ratio (%) at 1 μmol/L (tankyrase-2): 93%

SMILES: N#Cc1cc(N2C(=O)N(CC3CCN(c4ncnc5cc(N)cnc45)CC3)Cc3ccccc32)ccn1 [Compound 41, 4-(3-{[1-(7-Aminopyrido[3,2-d]pyrimidin-4-yl)piperidin-4-yl]methyl}-2-oxo-3,4-dihydroquinazolin-1(2H)-yl)picolinonitrile]
inhibition at 1 µM ([1]; DLD-1, 18 h): 81%
Inhibition ratio (%) at 1 μmol/L (tankyrase-2): 92%

SMILES: CC(=O)N1CCc2ncnc(N3CCC(CN4Cc5ccccc5N(c5ccc(F)c(C#N)c5)C4=O)CC3)c2C1 [Compound 44, 5-(3-{[1-(6-Acetyl-5,6,7,8-tetrahydropyrido[4,3-d]pyrimidin-4-yl)piperidin-4-yl]methyl}-2-oxo-3,4-dihydroquinazolin-1(2H)-yl)-2-fluorobenzonitrile]
inhibition at 1 µM ([1]; DLD-1, 18 h): 82%
Inhibition ratio (%) at 1 μmol/L (tankyrase-2): 93%

Inhibition ratio (%) at 1 μmol/L (tankyrase-2): 80%
SMILES: N#Cc1cc(N2C(=O)N(CC3CCN(c4nccc5nc[nH]c(=O)c45)CC3)Cc3cccnc32)ccc1F [Compound 47, 2-Fluoro-5-(2-oxo-3-{[1-(4-oxo-3,4-dihydropyrido[4,3-d]pyrimidin-5-yl)piperidin-4-yl]methyl}-3,4-dihydropyrido[2,3-d]pyrimidin-1(2H)-yl)benzonitrile]
inhibition at 1 µM [1, 2]: 82%

Inhibition ratio (%) at 1 μmol/L (tankyrase-2): 93%
SMILES: COc1ccc2c(c1)CN(CC1CCN(c3nccc4nc[nH]c(=O)c34)CC1)C(=O)N2c1ccnc(C(N)=O)c1 [Compound 48, 4-(6-Methoxy-2-oxo-3-{[1-(4-oxo-3,4-dihydropyrido[4,3-d]pyrimidin-5-yl)piperidin-4-yl]methyl}-3,4-dihydroquinazolin-1(2H)-yl)picolinamide]
inhibition at 1 µM [1, 2]: 84%
